Converted amounts (≈) assume the structure as drawn.
Experiments:
Candida albicans [1] = test: Antifungal activity against Candida albicans after 24 hrs by microbroth dilution method; assay type: functional
Candida albicans [2] = test: Antifungal activity against Candida albicans NR-29438 after 24 hrs by microbroth dilution method; assay type: functional; conditions: NR-29438, 24 h
Candida albicans [3] = test: Antifungal activity against Candida albicans NR-29434 after 24 hrs by microbroth dilution method; assay type: functional; conditions: NR-29434, 24 h
Cryptococcus neoformans [4] = test: Antifungal activity against Cryptococcus neoformans NR-41298 after 24 hrs by microbroth dilution method; assay type: functional; conditions: NR-41298, 24 h
Candida albicans [5] = test: Antifungal activity against Candida albicans […] after 24 hrs by microbroth dilution method; assay type: functional
Cryptococcus neoformans [6] = test: Antifungal activity against Cryptococcus neoformans NR-41299 after 24 hrs by microbroth dilution method; assay type: functional; conditions: NR-41299, 24 h
Candida albicans [7] = test: Antibiofilm activity against 48 hrs old pre-formed biofilms of Candida albicans ATCC 10231 at 16 ug/ml after 24 hrs by MTS assay relative to control; assay type: functional
Candida albicans [8] = test: Antifungal activity against Candida albicans NR-29442 after 24 hrs by microbroth dilution method; assay type: functional; conditions: NR-29442, 24 h
Cryptococcus neoformans [9] = test: Antifungal activity against Cryptococcus neoformans NR-41292 after 24 hrs by microbroth dilution method; assay type: functional; conditions: NR-41292, 24 h
Candida albicans [10] = test: Antibiofilm activity against 48 hrs old pre-formed biofilms of Candida albicans ATCC 10231 at 128 ug/ml after 24 hrs by MTS assay relative to control; assay type: functional
Cryptococcus neoformans [11] = test: Antifungal activity against Cryptococcus neoformans NR-41295 after 24 hrs by microbroth dilution method; assay type: functional; conditions: NR-41295, 24 h
Candida albicans [12] = test: Antifungal activity against Candida albicans NR-29437 after 24 hrs by microbroth dilution method; assay type: functional; conditions: NR-29437, 24 h
Cryptococcus neoformans [13] = test: Antifungal activity against Cryptococcus neoformans NR-41291 after 24 hrs by microbroth dilution method; assay type: functional; conditions: NR-41291, 24 h
Candida albicans [14] = test: Antifungal activity against Candida albicans NR-29367 after 24 hrs by microbroth dilution method; assay type: functional; conditions: NR-29367, 24 h
Candida albicans [15] = test: Antifungal activity against Candida albicans NR-29435 after 24 hrs by microbroth dilution method; assay type: functional; conditions: NR-29435, 24 h
Candida albicans [16] = test: Antifungal activity against Candida albicans NR-29439 after 24 hrs by microbroth dilution method; assay type: functional; conditions: NR-29439, 24 h
Candida albicans [17] = test: Antifungal activity against Candida albicans NR-29440 after 24 hrs by microbroth dilution method; assay type: functional; conditions: NR-29440, 24 h
Cryptococcus neoformans [18] = test: Antifungal activity against Cryptococcus neoformans NR-41294 after 24 hrs by microbroth dilution method; assay type: functional; conditions: NR-41294, 24 h
Cryptococcus neoformans [19] = test: Antifungal activity against Cryptococcus neoformans NR-41297 after 24 hrs by microbroth dilution method; assay type: functional; conditions: NR-41297, 24 h
Candida albicans [20] = test: Antifungal activity against Candida albicans NR-29448 after 24 hrs by microbroth dilution method; assay type: functional; conditions: NR-29448, 24 h
Candida albicans [21] = test: Antifungal activity against Candida albicans NR-29449 after 24 hrs by microbroth dilution method; assay type: functional; conditions: NR-29449, 24 h
Candida albicans [22] = test: Antifungal activity against Candida albicans NR-29366 after 24 hrs by microbroth dilution method; assay type: functional; conditions: NR-29366, 24 h
Candida albicans [23] = test: Antifungal activity against Candida albicans NR-29441 after 24 hrs by microbroth dilution method; assay type: functional; conditions: NR-29441, 24 h
Candida albicans [24] = test: Antifungal activity against Candida albicans NR-29444 after 24 hrs by microbroth dilution method; assay type: functional; conditions: NR-29444, 24 h
Candida albicans [25] = test: Antifungal activity against Candida albicans NR-29446 after 24 hrs by microbroth dilution method; assay type: functional; conditions: NR-29446, 24 h
Candida albicans [26] = test: Antibiofilm activity against 48 hrs old pre-formed biofilms of Candida albicans ATCC 10231 at 32 ug/ml after 24 hrs by MTS assay relative to control; assay type: functional
Candida parapsilosis = test: Antifungal activity against Candida parapsilosis ATCC 22019 after 24 hrs by microbroth dilution method; assay type: functional; conditions: Lodderomyces parapsilosis, ATCC 22019, 24 h
Candida albicans [27] = test: Antifungal activity against Candida albicans ATCC 10231 after 24 hrs by microbroth dilution method; assay type: functional; conditions: ATCC 10231, 24 h
Cryptococcus neoformans [28] = test: Antifungal activity against Cryptococcus neoformans NR-41296 after 24 hrs by microbroth dilution method; assay type: functional; conditions: NR-41296, 24 h
HCT-116 [29] = test: Cytotoxicity against human HCT116 cells assessed as reduction in cell viability up to 4 ug/ml after 24 hrs by MTS assay; assay type: cell-based; conditions: hct-116, 24 h
Nakaseomyces glabratus = test: Antifungal activity against Candida glabrata ATCC 90030 after 24 hrs by microbroth dilution method; assay type: functional; conditions: ATCC 90030, 24 h
HCT-116 [30] = test: Cytotoxicity against human HCT116 cells assessed as reduction in cell viability at 32 to 128 ug/ml after 24 hrs by MTS assay; assay type: cell-based; conditions: hct-116, 24 h

COc1ccc2nc3c(cc2c1)Cn1c-3nc2ccccc21
MIC (Candida albicans [1]): 16 µg/mL (≈ 55.7 µM)

Clc1cccc2cc3c(nc12)-c1nc2ccccc2n1C3
MIC (Candida albicans [1]): 64 µg/mL (≈ 219 µM)

Brc1cccc2cc3c(nc12)-c1nc2ccccc2n1C3
MIC (Candida albicans [1]): > 64 µg/mL

Cc1ccc2cc3c(nc2c1)-c1nc2ccccc2n1C3
MIC (Candida albicans [1]): 32 µg/mL (≈ 118 µM)

COc1ccc2cc3c(nc2c1)-c1nc2ccccc2n1C3
MIC (Candida albicans [1]): > 64 µg/mL

Cc1cccc2cc3c(nc12)-c1nc2ccccc2n1C3
MIC (Candida albicans [1]): 16 µg/mL (≈ 59 µM)

Cc1ccc2nc3c(cc2c1)Cn1c-3nc2ccccc21
MIC (Candida albicans [1]): 32 µg/mL (≈ 118 µM)

COc1cccc2cc3c(nc12)-c1nc2ccccc2n1C3
MIC (Candida albicans [1]): 64 µg/mL (≈ 223 µM)

c1ccc2nc3c(cc2c1)Cn1c-3nc2ccccc21
MIC (Candida albicans [2]): 0.25 µg/mL (≈ 0.972 µM)
MIC (Candida albicans [3]): 0.25 µg/mL (≈ 0.972 µM)
MIC (Cryptococcus neoformans [4]): 2 µg/mL (≈ 7.77 µM)
MIC (Candida albicans [5]): 0.0625 µg/mL (≈ 0.243 µM)
MIC (Cryptococcus neoformans [6]): 2 µg/mL (≈ 7.77 µM)
Activity (Candida albicans [7]): 25%
MIC (Candida albicans [8]): 0.5 µg/mL (≈ 1.94 µM)
MIC (Cryptococcus neoformans [9]): 0.5 µg/mL (≈ 1.94 µM)
Activity (Candida albicans [10]): 60%
MIC (Cryptococcus neoformans [11]): 2 µg/mL (≈ 7.77 µM)
MIC (Candida albicans [12]): 0.0625 µg/mL (≈ 0.243 µM)
MIC (Cryptococcus neoformans [13]): 1 µg/mL (≈ 3.89 µM)
MIC (Candida albicans [14]): 0.5 µg/mL (≈ 1.94 µM)
MIC (Candida albicans [15]): 0.5 µg/mL (≈ 1.94 µM)
MIC (Candida albicans [16]): 0.5 µg/mL (≈ 1.94 µM)
MIC (Candida albicans [17]): 0.5 µg/mL (≈ 1.94 µM)
MIC (Cryptococcus neoformans [18]): 1 µg/mL (≈ 3.89 µM)
MIC (Cryptococcus neoformans [19]): 0.5 µg/mL (≈ 1.94 µM)
MIC (Candida albicans [20]): 0.25 µg/mL (≈ 0.972 µM)
MIC (Candida albicans [21]): 0.0625 µg/mL (≈ 0.243 µM)
MIC (Candida albicans [22]): 0.5 µg/mL (≈ 1.94 µM)
MIC (Candida albicans [23]): 0.5 µg/mL (≈ 1.94 µM)
MIC (Candida albicans [1]): 0.5 µg/mL (≈ 1.94 µM)
MIC (Candida albicans [24]): 0.25 µg/mL (≈ 0.972 µM)
MIC (Candida albicans [25]): 0.5 µg/mL (≈ 1.94 µM)
Activity (Candida albicans [26]): 40%
MIC (Candida parapsilosis): 1 µg/mL (≈ 3.89 µM)
MIC (Candida albicans [27]): 0.5 µg/mL (≈ 1.94 µM)
MIC (Cryptococcus neoformans [28]): 1 µg/mL (≈ 3.89 µM)
Activity (HCT-116 [29]): Non-Toxic
MIC (Nakaseomyces glabratus): 1 µg/mL (≈ 3.89 µM)
Activity (HCT-116 [30]): 25%

OC(Cn1cncn1)(Cn1cncn1)c1ccc(F)cc1F [FLUCONAZOLE]
MIC (Candida albicans [2]): 0.5 µg/mL (≈ 1.63 µM)
MIC (Candida albicans [3]): 0.5 µg/mL (≈ 1.63 µM)
MIC (Cryptococcus neoformans [4]): 4 µg/mL (≈ 13.1 µM)
MIC (Candida albicans [5]): 2 µg/mL (≈ 6.53 µM)
MIC (Cryptococcus neoformans [6]): 2 µg/mL (≈ 6.53 µM)
Activity (Candida albicans [7]): 25%
MIC (Candida albicans [8]): 16 µg/mL (≈ 52.2 µM)
MIC (Cryptococcus neoformans [9]): 1 µg/mL (≈ 3.27 µM)
Activity (Candida albicans [10]): 40%
MIC (Cryptococcus neoformans [11]): 2 µg/mL (≈ 6.53 µM)
MIC (Candida albicans [12]): 2 µg/mL (≈ 6.53 µM)
MIC (Cryptococcus neoformans [13]): 1 µg/mL (≈ 3.27 µM)
MIC (Candida albicans [14]): > 64 µg/mL
MIC (Candida albicans [15]): 0.25 µg/mL (≈ 0.816 µM)
MIC (Candida albicans [16]): > 64 µg/mL
MIC (Candida albicans [17]): 2 µg/mL (≈ 6.53 µM)
MIC (Cryptococcus neoformans [18]): 2 µg/mL (≈ 6.53 µM)
MIC (Cryptococcus neoformans [19]): 0.5 µg/mL (≈ 1.63 µM)
MIC (Candida albicans [20]): > 64 µg/mL
MIC (Candida albicans [21]): 0.5 µg/mL (≈ 1.63 µM)
MIC (Candida albicans [22]): > 64 µg/mL
MIC (Candida albicans [23]): 4 µg/mL (≈ 13.1 µM)
MIC (Candida albicans [24]): 2 µg/mL (≈ 6.53 µM)
MIC (Candida albicans [25]): > 64 µg/mL
MIC (Candida parapsilosis): 0.25 µg/mL (≈ 0.816 µM)
MIC (Candida albicans [27]): 1 µg/mL (≈ 3.27 µM)
MIC (Cryptococcus neoformans [28]): 1 µg/mL (≈ 3.27 µM)
MIC (Nakaseomyces glabratus): 1 µg/mL (≈ 3.27 µM)
